The text below walks through data of PMC11928584, “H105A peptide eye drops promote photoreceptor survival in murine and human models of retinal degeneration” (Communications Medicine, 2025).

Type in all cases: in vivo, mouse
For series [1], the system named is photoreceptors of rd10 mice. The series is described as follows: PSVue-550 fluorescence fundoscopy of photoreceptor cell death (PS externalization). The settings on record: daily eye drops 5 µl of 1 mg/ml from P15, PSVue-550 fundoscopy P21. The source says: (§1) Fluorescence fundoscopy with a cell death probe was chosen as a simple method for monitoring photoreceptor cell death in alive animals. A fluorescent probe, bis (zinc^2+-dipicolylamine)-550, (PSVue®-550) (Molecular Targeting Technologies Inc, cat. P-1005) was reconstituted in Hanks’ Balanced Salt Solution (HBSS, Quality Biological, cat. 114-062-101) according to the manufacturer’s instructions[28],[36]. This probe is suitable for in vivo use to specifically and transiently label dying photoreceptors, such as in living rats with retinal degeneration the Royal College of Surgeons rat model, in a non-invasive and non-toxic method without the need of intraocular injection. Briefly, a stock of 1 mM solution of PSVue®-550 was stored in the dark at 4 °C and used within 14 days directly as eye drop. After 3-4 h of light onset each mouse received eye drops of 5–10 μl of 1 mM PSVue®-550 in the left eye and HBSS in the right eye as control. The eye drop volume was chosen such that the eye cavity was filled without spillage outside the eye, and it was modified depending on eye size. […] To obtain in vivo retinal images of fundi, at 24 h after the probe was administered, the mice were anesthetized, and pupils were dilated with 1% tropicamide for 5 min and kept hydrated with GenTeal. Fluorescence was imaged using a retinal imaging microscope (Micron III, Phoenix Research Labs) using an FF02- 475/50 nm excitation filter (Semrock, Inc.). We observed some variability in optic nerve (ON) fluorescence that could not be readily explained, so the optic nerve was excluded from analyses in all samples.
(§2) To determine the natural history of photoreceptor death of rd10 and rd10/Serpinf1^-/- mice, we assessed photoreceptor cell death in live mice using the fluorescent probe termed PSVue® 550 to monitor PS externalization by fluorescence fundoscopy (Supplementary Fig. 2). Given the reports about the retinas of rd10 mice starting to show histological changes at P16, and with a peak in the number of TUNEL+ nuclei in the ONL at P17-18[13], we monitored PS externalization in photoreceptors of these mice undergoing degeneration before death onset. Eye drops of 1 mM PSVue® 550 solution in HBSS were administered to left eyes and HBSS (vehicle) to their contralateral right eyes of each mouse at ages P16, P20, P22 or P24. PS externalization was determined by fluorescence fundoscopy 24 h post-administration. PSVue labeling of phosphatidylserine (PS) externalization associated with photoreceptor cell death in the rd10 retina (Supplementary Figs. 2, 3).
(§3) Fig. 2 Effect of PEDF peptide eye drops on protection against photoreceptor cell death in rd10 and rd10/Serpinf1^-/- mice. a Illustration of the experimental timeline of peptide application. Eye drops containing 5 µl of 17-mer, H105A, or R99A peptides in HBSS were administered daily to eyes of rd10 and rd10/Serpinf1^-/- mice from P15 to P20. Vehicle (HBSS) was applied in contralateral eyes. At P20, PSVue® was applied via eye drops, and fluorescence fundoscopy was conducted at P21 to assess photoreceptor cell death. RE and LE refer to the right and left eyes, respectively. b Fluorescence fundoscopy micrographs. Representative fluorescence fundoscopy images of retinas from mice treated as in Panel a with eyedrops of 1 mg/ml of each peptide. Quantification of fluorescence intensity was performed using ImageJ, with average intensity values corrected for background fluorescence from eyes that had not received PSVue or peptides. Each line represents data from one animal comparing treated and contralateral eyes, with five eyes (n = 5) per condition. Statistical significance was determined by paired t-test (****p ≤ 0.0001, and ns > 0.05). Scale bar = 0.5 mm. c Dose response of peptide eye drops. Representative fluorescence fundoscopy micrographs showing retinas treated with varying concentrations of 17-mer and H105A peptides (0.0 mg/ml to 1.0 mg/ml) in rd10 and rd10/Serpinf1^-/- mice. […]

Series [2] has as its system photoreceptors of rd10/Serpinf1-/- mice. The description is as above. The note with it: daily eye drops 5 µl of 1 mg/ml from P15, PSVue-550 fundoscopy P21.
Description: as §1, §2, §3

Series [3] relates to retinal function of rd10 mice. The series is described as follows: Electroretinogram (scotopic a- and b-wave), rd10 mice. The note with it: daily eye drops of labeled peptide P15-P20, ERG P21, n=3. The procedure:
Electroretinogram (ERG) for rd10 and rd10/Serpinf1^-/- mice were dark-adapted overnight and recorded in both eyes of each animal using an Espion E2 system with ColorDome (Diagnosys LLC) with a heated surface. Briefly, pupils were dilated with 1% tropicamide (Akorn, NDC: 17478-101-12) for 10 min and mice were anesthetized with intraperitoneal injection of Zetamine™ (Ketamine hydrochloride injection, USP; VetOne, NDC 13985-584-10) at 92.5 mg/kg, and AnaSed® (xylazine injection, Akorn Pharmaceuticals, NDC 59399-110-20) at 5.5 mg/kg. Mice were placed on the heated surface and electrodes were placed in the mouth and a subdermal platinum needle electrode was placed in the back of the mouse to serve as ground. Responses were elicited with increasing light impulses with intensity from 0.0001 to 10 cd-seconds per meter squared (cd.s/m^2). Amplitudes for a-wave were measured from stimulus to the trough of the a-wave and b-wave amplitudes were measured from a-wave to b-wave trough or peak. The values from the a and b waves for both eyes were exported to Microsoft Excel to obtained amplitude values for each mouse.
Fig. 5 Effect of daily eyedrops of PEDF peptides on ERG a-wave and b-wave retinal function. a Illustration of the experimental timeline of peptide application. RE and LE refer to the right and left eyes, respectively. Representative ERG waveforms for rd10 (b) and rd10/Serpinf1^-/- (c) mice at P21 in response to a light flash (1 cd.s/m²). Amplitude (y-axis) is plotted against time in milliseconds (ms, x-axis). Treatments are indicated to the right of each plot and are color coded, with control wild type C57BL/6 J mice without peptide treatment shown in blue. A-wave and b-wave are indicated by arrows. Photoreceptor a-wave amplitudes. Averages of photoreceptor a-wave amplitudes for rd10 (d) and rd10/Serpinf1^-/- (e) mice as a function of light intensity (cd/s.m², x-axis). Responses of animals treated with 17-mer are shown in green, H105A in black, and vehicle (HBSS) in red. Wildtype responses are shown in blue. Bipolar cell b-wave amplitudes. Averages of bipolar cell b-wave amplitudes for rd10 (f) and rd10/Serpinf1^-/- (g) mice as a function of light intensity (cd/s.m², x-axis), with treatments as indicated in panels. The number of mice evaluated for the data shown in Panels d-g was five (n = 5) for each rd10, rd10/Serpinf1^-/- and wild type. Each data point represents the average ± SD of each genotype, analyzed by ANOVA with Dunnett’s multiple comparisons. Statistical significance between H105A and vehicle is indicated by ##p ≤ 0.01, ###p ≤ 0.001, ####p ≤ 0.0001, and between H105A and 17-mer by **p ≤ 0.01, ***p ≤ 0.001, ****p ≤ 0.0001.

Where a SMILES comes first, the peptide text is derived from it.

As to `CC[C@H](C)[C@H](NC(=O)[C@H](CC(=O)O)NC(=O)[C@@H]1CCCN1C(=O)[C@H](CO)NC(=O)[C@H](CO)NC(=O)[C@@H](NC(=O)[C@H](CC(C)C)NC(=O)[C@H](CC(=O)O)NC(=O)[C@H](Cc1ccc(O)cc1)NC(=O)[C@H](Cc1ccc(O)cc1)NC(=O)[C@H](CC(C)C)NC(=O)[C@H](C)NC(=O)[C@H](CCCNC(=N)N)NC(=O)[C@H](C)NC(=O)[C@@H](NC(=O)[C@@H](NC(=O)[C@H](CO)NC(=O)[C@H](CCC(=O)O)NC(=O)[C@@H](NC(=O)[C@H](CCCNC(=N)N)NC(=O)[C@H](CCC(N)=O)NC(=O)[C@H](CCC(=O)O)NC(=O)[C@H](C)NC(=O)CNC(=O)[C@H](CC(C)C)NC(=O)[C@@H](N)CO)[C@@H](C)O)[C@@H](C)CC)[C@@H](C)CC)[C@@H](C)CC)C(=O)N[C@@H](Cc1c[nH]cn1)C(=O)NCC(=O)N[C@H](C(=O)O)[C@@H](C)O` [29-mer[H105A]] (H-SLGAEQRTESIIARALYYDLISSPDIHGT-OH), the “PS externalization / photoreceptor cell death vs vehicle” value in series [1] and in series [2] was “no reduction in photoreceptor cell death” each time. For `CC[C@H](C)[C@H](NC(=O)[C@H](CC(=O)O)NC(=O)[C@@H]1CCCN1C(=O)[C@H](CO)NC(=O)[C@H](CO)NC(=O)[C@@H](NC(=O)[C@H](CC(C)C)NC(=O)[C@H](CC(=O)O)NC(=O)[C@H](Cc1ccc(O)cc1)NC(=O)[C@H](Cc1ccc(O)cc1)NC(=O)[C@H](CC(C)C)NC(=O)[C@H](C)NC(=O)[C@H](CCCNC(=N)N)NC(=O)[C@H](Cc1c[nH]cn1)NC(=O)[C@@H](NC(=O)[C@@H](NC(=O)[C@H](CO)NC(=O)[C@H](CCC(=O)O)NC(=O)[C@@H](NC(=O)[C@H](CCCNC(=N)N)NC(=O)[C@H](CCC(N)=O)NC(=O)[C@H](CCC(=O)O)NC(=O)[C@H](C)NC(=O)CNC(=O)[C@H](CC(C)C)NC(=O)[C@@H](N)CO)[C@@H](C)O)[C@@H](C)CC)[C@@H](C)CC)[C@@H](C)CC)C(=O)N[C@@H](Cc1c[nH]cn1)C(=O)NCC(=O)N[C@H](C(=O)O)[C@@H](C)O` [29-mer] (H-SLGAEQRTESIIHRALYYDLISSPDIHGT-OH), the “PS externalization / photoreceptor cell death vs vehicle” value in series [1] and in series [2] was “no reduction in photoreceptor cell death” in each case. For the compound “AlexaFl-QATESIIHRALYYDLIS-COOH [AlexaFl-488-R99A, R99A peptide conjugated to Alexa Fluor 488 dye]”, the “ERG a-wave and b-wave retinal function” value in series [3] is given as “showed no improvement”.

“AlexaFl-QRTESIIARALYYDLIS-COOH [AlexaFl-488-H105A, H105A peptide conjugated to Alexa Fluor 488 dye]”: the “ERG a-wave and b-wave retinal function” value in series [3] is given as “improved retinal function”. Still for that read-out and setting: in the case of “AlexaFl-QRTESIIHRALYYDLIS-COOH [AlexaFl-488-17-mer, 17-mer peptide conjugated to Alexa Fluor 488 dye]” it was “improved retinal function”.
